Source: PubChem BioAssay AID1919016 (Molecular Pharmacology Branch, DTP, NCI, 2023)

Test system: NCI-H196 complex spheroid growth, percent test/control
Test: Anticancer human tumor NCI-H196 cell line growth inhibition [AhR];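 note: seven days of drug exposure starting three days after plating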;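 for viability, T/C: 100% = DMSO vehicle control wells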
Conditions: for viability, T/C: stronger effect = lower value
Source text: Multicellular complex tumor spheroid response to aryl hydrocarbon receptor antagonists in combination with a variety of drugs and investigational agents in selected tumor cell lines
The current study was undertaken to assess response to aryl hydrocarbon receptor antagonists in combination with standard-of-care drugs and investigational agents in solid tumor complex spheroid models. Complex spheroids include a stromal component modeled by human endothelial cells (HUVEC) and fibroblasts modeled by human mesenchymal stem cells (MSCs). The concentration ranges selected for each drug and investigational agent were based upon clinically achievable concentrations if the clinical Cmax of the agent was known.
Compounds. The drugs and investigational agents: BAY 2416964 (NSC825713), GNF351 (NSC835774), CH-223191 (NSC835775), CPI-455 (NSC825282), aza-TdCyd (NSC777586), decitabine (NSC127716), belinostat (NSC758774), entinostat (NSC756642), pevonedistat (NSC761192), tazemetostat (NSC777109), talazoparib (NSC765396), olaparib (NSC753686), selinexor (NSC780203), nedisertib (M3814, NSC802822), bortezomib (NSC756655), venetoclax (NSC766270), doxorubicin (NSC123127), elimusertib (BAY189344, NSC800525), ceralasertib (AZD6738, NSC777638), TAK-243 (NSC785004), alisertib (NSC759677), etoposide (NSC141540), topotecan (NSC609699), eribulin (NSC707389), gemcitabine (NSC613327), carboplatin (NSC241240), cisplatin (NSC119875), and SN-38 (NSC673596) were obtained from the National Cancer Institute (NCI) Developmental Therapeutics Program Chemical Repository (32). The FDA-approved anticancer drug set is available from the Developmental Therapeutics Program at https://dtp.cancer.gov/organization/dscb/obtaining/available plates.htm. […] The stock solutions were prepared in dimethyl sulfoxide (DMSO, Sigma-Aldrich, St. Louis, MO, cat. D2650), except for the platinum compounds which were prepared in saline (Quality Biological, Gaithersburg, MD, cat. 114-055-101), at 800-fold the tested concentration and stored at -70 degrees C prior to their use. All drugs and investigational agents were tested over a range starting from a high concentration at or near the clinical Cmax and decreasing in half-log increments. If the clinical Cmax for an agent had not been determined, the highest concentration tested was 10 microM (Table 1).
Cell Culture. All cells were maintained in an incubator at 37 degrees C and 5% CO2 with 95% humidity. The PDC lines were cultured according to standard operating procedures established by the NCI PDMR (https://pdmr.cancer.gov). Briefly, all PDCs were thawed and cultured in Matrigel-coated flasks prepared with a working solution of 1X Ham's F-12 nutrient mix, without supplementation (Invitrogen, Waltham, MA, cat. 11765054), 100 U/mL penicillin-streptomycin (Invitrogen, cat. 15140122), and 2.5% Matrigel (Corning Inc., Corning, NY, cat. 354248) for the first three passages. All PDCs were cultured in complete DMEM/F-12 media containing advanced DMEM/F-12 (Invitrogen, cat. 12634028), 4.9% defined fetal bovine serum, heat inactivated (HyClone Laboratories Inc., Logan, UT, cat. SH30070.03HI), 389 ng/mL hydrocortisone (Sigma-Aldrich, cat. H4001), 9.7 ng/mL human EGF recombinant protein (Invitrogen, cat. PHG0313), 23.4 microg/mL adenine (Sigma-Aldrich, cat. A2786), 97.3 U/mL penicillin-streptomycin (Invitrogen, cat. 15140122), 1.9 mM L-glutamine (Invitrogen, cat. 25030081), and 9.7 microM Y-27632 dihydrochloride (Tocris Bioscience, Bristol, United Kingdom, cat. 1254). The PDCs were cultured in complete DMEM/F12 media without 10 microM Y-27632 dihydrochloride for at least two passages prior to the screen. The established cell lines NCI-H1341 and […] were cultured in DMEM/F-12, HEPES (Invitrogen, cat. 11330032), 5% defined fetal bovine serum (HyClone Laboratories Inc., cat. SH30070.03), ITS premix universal culture supplement [insulin (5 microg/mL), transferrin (5 microg/mL), and selenious acid (5 ng/mL)] […]

[1] = curve of first compound, second compound 0.1 µM
[2] = curve of first compound, second compound 0.316 µM
[3] = curve of first compound, second compound 1 µM
[4] = curve of first compound, second compound 3.16 µM
[5] = curve of first compound, second compound 10 µM
[6] = second compound 0.1 µM, first compound 0.0316 µM
[7] = second compound 0.1 µM, first compound 0.1 µM
[8] = second compound 0.1 µM, first compound 0.316 µM
[9] = second compound 0.1 µM, first compound 1 µM
[10] = second compound 0.1 µM, first compound 3.16 µM
[11] = second compound 0.1 µM, first compound 10 µM
[12] = second compound 0.316 µM, first compound 0.0316 µM
[13] = second compound 0.316 µM, first compound 0.1 µM
[14] = second compound 0.316 µM, first compound 0.316 µM
[15] = second compound 0.316 µM, first compound 1 µM
[16] = second compound 0.316 µM, first compound 3.16 µM
[17] = second compound 0.316 µM, first compound 10 µM
[18] = second compound 1 µM, first compound 0.0316 µM
[19] = second compound 1 µM, first compound 0.1 µM
[20] = second compound 1 µM, first compound 0.316 µM
[21] = second compound 1 µM, first compound 1 µM
[22] = second compound 1 µM, first compound 3.16 µM
[23] = second compound 1 µM, first compound 10 µM
[24] = second compound 3.16 µM, first compound 0.0316 µM
[25] = second compound 3.16 µM, first compound 0.1 µM
[26] = second compound 3.16 µM, first compound 0.316 µM
[27] = second compound 3.16 µM, first compound 1 µM
[28] = second compound 3.16 µM, first compound 3.16 µM
[29] = second compound 3.16 µM, first compound 10 µM
[30] = second compound 10 µM, first compound 0.0316 µM
[31] = second compound 10 µM, first compound 0.1 µM
[32] = second compound 10 µM, first compound 0.316 µM
[33] = second compound 10 µM, first compound 1 µM
[34] = second compound 10 µM, first compound 3.16 µM
[35] = second compound 10 µM, first compound 10 µM

IC50 [1] | IC50 [2] | IC50 [3] | IC50 [4] | IC50 [5] | SMILES | viability, T/C [6] | viability, T/C [7] | viability, T/C [8] | viability, T/C [9] | viability, T/C [10] | viability, T/C [11] | viability, T/C [12] | viability, T/C [13] | viability, T/C [14] | viability, T/C [15] | viability, T/C [16] | viability, T/C [17] | viability, T/C [18] | viability, T/C [19] | viability, T/C [20] | also measured
> 10 µM | > 10 µM | > 10 µM | > 10 µM | > 10 µM | CC(C)c1c(-c2ccccc2)nc2c(C#N)c[nH]n2c1=O + CC(CO)NC(=O)c1cc(-c2ccc(Cl)cc2)nn(-c2cnn(C)c2)c1=O | 118% | 107% | 111% | 105% | 104% | 102% | 116% | 128% | 109% | 112% | 108% | 111% | 111% | 114% | 117% | viability, T/C [21]: 121%; viability, T/C [22]: 118%; viability, T/C [23]: 104%; viability, T/C [24]: 109%; viability, T/C [25]: 111%; viability, T/C [26]: 118%; viability, T/C [27]: 114%; viability, T/C [28]: 117%; viability, T/C [29]: 110%; viability, T/C [30]: 116%; viability, T/C [31]: 127%; viability, T/C [32]: 114%; viability, T/C [33]: 119%; viability, T/C [34]: 111%; viability, T/C [35]: 108%
> 10 µM | > 10 µM | > 10 µM | > 10 µM | > 10 µM | COc1ccc([C@@H](O)c2cc(-c3ncnc4cc(N5CCOCC5)ccc34)c(F)cc2Cl)nn1 + CC(CO)NC(=O)c1cc(-c2ccc(Cl)cc2)nn(-c2cnn(C)c2)c1=O | 102% | 91.2% | 94.5% | 80.3% | 75.6% | 82.4% | 109% | 100% | 94.9% | 83.3% | 80.2% | 75.8% | 107% | 106% | 102% | viability, T/C [21]: 89.3%; viability, T/C [22]: 77%; viability, T/C [23]: 72.8%; viability, T/C [24]: 108%; viability, T/C [25]: 113%; viability, T/C [26]: 114%; viability, T/C [27]: 96.1%; viability, T/C [28]: 84.1%; viability, T/C [29]: 78.7%; viability, T/C [30]: 115%; viability, T/C [31]: 104%; viability, T/C [32]: 95.4%; viability, T/C [33]: 84.5%; viability, T/C [34]: 75.8%; viability, T/C [35]: 72.3%
 |  |  |  |  | CC(CO)NC(=O)c1cc(-c2ccc(Cl)cc2)nn(-c2cnn(C)c2)c1=O (stereo not drawn) |  |  |  |  |  |  |  |  |  |  |  |  |  |  |  | viability, T/C (compound 1 µM): 105% [middle of 21 runs]; viability, T/C (compound 3.16 µM): 106% [middle of 19 runs]; IC50 (compound alone, run of 08/08/2022): > 10 µM
